{"source": "paper PMC9981747", "about": "“A covalent BTK ternary complex compatible with targeted protein degradation” (Nature Communications, 2023)", "key": {"BTK^T474I": {"target": "T1, BTK^T474I (Homo sapiens, UniProt Q06187+Q13490, T474I)", "T1 construct": "we used a full-length BTK (aa1-659) with a C terminal Tobacco Etch Virus protease (TEV) site; expressed in transfected cells; host or cells: Expi293 (HEK293)", "T1 sequence (Q06187 whole entry T474I, the tested form may be a part)": "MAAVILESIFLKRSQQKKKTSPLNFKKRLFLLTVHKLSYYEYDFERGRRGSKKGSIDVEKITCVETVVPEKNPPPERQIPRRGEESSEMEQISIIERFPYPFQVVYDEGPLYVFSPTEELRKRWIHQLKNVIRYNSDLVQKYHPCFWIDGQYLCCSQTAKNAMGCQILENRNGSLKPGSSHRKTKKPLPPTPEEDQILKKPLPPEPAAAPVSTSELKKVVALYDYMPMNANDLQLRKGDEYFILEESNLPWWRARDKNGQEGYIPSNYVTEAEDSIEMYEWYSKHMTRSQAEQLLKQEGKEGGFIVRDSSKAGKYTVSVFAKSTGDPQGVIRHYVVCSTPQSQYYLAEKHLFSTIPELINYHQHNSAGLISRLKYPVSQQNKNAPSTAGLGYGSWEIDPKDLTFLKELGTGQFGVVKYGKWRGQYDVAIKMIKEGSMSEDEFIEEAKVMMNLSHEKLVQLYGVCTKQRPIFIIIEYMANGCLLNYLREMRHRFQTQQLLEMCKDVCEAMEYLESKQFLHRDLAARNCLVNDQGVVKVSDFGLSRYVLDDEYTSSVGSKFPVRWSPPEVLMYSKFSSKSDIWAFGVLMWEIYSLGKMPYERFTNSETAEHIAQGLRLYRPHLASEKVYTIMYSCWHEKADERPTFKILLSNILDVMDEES", "T1 sequence (Q13490 whole entry, the tested form may be a part)": "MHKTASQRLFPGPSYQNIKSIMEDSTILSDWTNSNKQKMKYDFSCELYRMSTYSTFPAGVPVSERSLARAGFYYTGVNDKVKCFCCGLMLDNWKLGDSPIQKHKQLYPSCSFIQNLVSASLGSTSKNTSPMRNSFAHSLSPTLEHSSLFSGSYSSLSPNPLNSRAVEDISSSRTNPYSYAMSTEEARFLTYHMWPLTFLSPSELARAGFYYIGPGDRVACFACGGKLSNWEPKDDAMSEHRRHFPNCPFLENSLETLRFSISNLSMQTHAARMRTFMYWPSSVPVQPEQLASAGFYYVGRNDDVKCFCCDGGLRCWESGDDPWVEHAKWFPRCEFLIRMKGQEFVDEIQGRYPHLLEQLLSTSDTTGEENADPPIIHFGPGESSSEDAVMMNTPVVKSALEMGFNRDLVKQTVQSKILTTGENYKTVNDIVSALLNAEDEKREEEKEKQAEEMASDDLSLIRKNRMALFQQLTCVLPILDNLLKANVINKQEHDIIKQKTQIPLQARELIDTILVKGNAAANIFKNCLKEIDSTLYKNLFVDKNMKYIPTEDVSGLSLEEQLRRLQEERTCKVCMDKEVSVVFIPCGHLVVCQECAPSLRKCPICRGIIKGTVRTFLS", "test": "Expi293 dose-dependent degradation of BTK gatekeeper mutant", "assay_type": "cell-based", "conditions": "Expi293 with cIAP1^FL", "procedure": "Gibco Expi293 cell line Transfection Kit (Cat.# A14524) was cultured according to the manufacturers conditions. Cells were grown at 37 °C with 5% CO2 to 4 × 10^6 cells/mL using an orbital shaker set to 95 RPM. Next cells were split to 2 × 10^6 cells/mL and transfected with plasmid DNA at a 1 µg/mL final concentration in Optimem (Gibco 31985070) using the Expifectamine 293 transfection reagent according to manufacturer’s conditions. After approximately 18 h, enhancers 1 and 2 (provided with kit). Viability was typically about 85%. When cIAP1^FL was transfected, it was detected via α-cIAP1 antibody there was typically some autoubiquitination detected, and thus often appeared as a laddered or smeared band via western blotting. When BTK^FL variants were transfected, they were detected using anti-BTK antibody (D3H5).\nFor dose-dependent degradation assays, cells were plated in a 24-well format and placed on a separate orbital shaker set to 115 RPM. […] Clarified lysate was harvested and quantified using a Pierce BCA Assay Kit (Cat. #23225), and 20 µg of the sample was loaded into a 4–15% Criterion TGX gel (Bio-Rad, 5678085) and transferred to a nitrocellulose membrane (Life Technologies Cat. #IB23001) using an iBlot 2 (Life Technologies Cat. #IB21001). Proteins were detected using an iBind system (Life Technologies SLF2020). […]"}, "BTK^FL": {"target": "T2, BTK^FL (Homo sapiens, UniProt Q06187)", "T2 construct": "we used a full-length BTK (aa1-659) with a C terminal Tobacco Etch Virus protease (TEV) site; expressed in transfected cells; host or cells: Expi293 (HEK293)", "test": "Covalent modification of BTK^FL in Expi293 cells without cIAP1, immunopurification and intact mass spectrometry", "assay_type": "cell-based", "conditions": "for Cov Form Over Time (% covalent bond formation): 5 µM, no exogenous cIAP1, replicates; for BTK^FL covalently modified: 18 h, n = 1", "procedure": "For covalent modification detection assays, the compound was added to Expi293 cells after enhancer treatment. At each timepoint 10 mL of cells were harvested, rapidly cooled to 4 °C in an ice bath, and centrifuged at 100 x g at 4 °C for 5 min. The pellet was washed twice with ice-cold PBS, snap-frozen in liquid nitrogen, and stored at −80 °C. Each pellet was resuspended in 0.1 mL ice-cold RIPA Buffer supplemented with 40 µM BCNC (to outcompete any remaining BCCov), protease inhibitor, and benzonase, and sonicated with 10 brief blasts at power 20. Lysate was centrifuged at 15 K x g for 20 min at 4 °C and prepared for western blotting as detailed above. When samples were evaluated for covalent adduct formation, a purification step was required. Briefly, the ~1 mL of clarified lysate was added to 9 mL of FLAG binding buffer (25 mM HEPES 7.5, 300 mM NaCl, 10% glycerol). These samples were incubated with 250 µL of anti-FLAG M2 affinity resin (Millipore-Sigma Cat. # A2220) for 3 h at 4 °C with gentle nutation. Samples were washed via gravity column filtration and eluted with 0.2 mg/ml FLAG Peptide (DYKDDDDK, CPC Scientific Peptide Company). Each sample was concentrated to 0.1 mg/mL using an Amicon Ultra-15 Centrifugal filter with a 50 kDa MWCO (Millipore-Sigma Cat. # UFC905024). Details on mass spectrometry analysis are below.\nEach sample was analyzed using intact mass spectrometry under denaturing conditions using an Agilent 6530 QToF Mass Spectrometer coupled with an Agilent Infinity 1290 UPLC chromatography system. Spectra were analyzed using ChemLaunch v1.6.8 (Healex Systems), Mass Hunter V7.0 (Agilent Technologies), and BioConfirm v8.0 (Agilent Technologies). For all proteins analyzed, approximately 2 μl of 0.1–0.4 mg/ml protein sample was added to 8 μl 0.2% trifluoroacetic acid (TFA) (Sigma T6508–100 mL). Subsequently, 5 μl of each sample was injected onto the instrument. Depending on the resolution, the amount of protein loaded was altered. Theoretical versus observed molecular weight is presented in Supplementary Table 1. While we have not experimentally determined the post-translational modifications (PTMs) resulting in observed molecular weight, we believe a loss of methionine and acetylation are likely. Variations between theoretical and observed masses may also be due to the resolution of the deconvoluted spectra leading to imperfect peak identification, particularly for a protein with heterogeneous phosphorylation states. Variation of several Daltons is observed between biological replicates and individual experiments."}}, "note": "Several values for one entry are separate records, joined by “and”; a condition that tells them apart may be missing. Identical values can stand only once.", "data": [{"smiles": "CNC(C)C(=O)NC(C(=O)N1CC(NC(=O)COCCN2CCN(CC=CC(=O)N3CCCC(n4nc(-c5ccc(Oc6ccccc6)cc5)c5c(N)ncnc54)C3)CC2)CC1C(=O)NC1CCCc2ccccc21)C1CCCCC1", "note": "(stereo not shown) [BCCov]", "values": [{"measurement": "degradation of BTK^T474I", "setting": "BTK^T474I", "result": "loss of activity"}, {"measurement": "Cov Form Over Time (% covalent bond formation)", "setting": "BTK^FL; 0.5 h", "result": "5.67% and 6.21% and 5.89%"}, {"measurement": "Cov Form Over Time (% covalent bond formation)", "setting": "BTK^FL; 1 h", "result": "8.64% and 10.21% and 9.49%"}, {"measurement": "Cov Form Over Time (% covalent bond formation)", "setting": "BTK^FL; 2 h", "result": "14.47% and 13.21% and 14.33%"}, {"measurement": "Cov Form Over Time (% covalent bond formation)", "setting": "BTK^FL; 3.5 h", "result": "19.26% and 19.25% and 19.86%"}, {"measurement": "Cov Form Over Time (% covalent bond formation)", "setting": "BTK^FL; 5.5 h", "result": "31.90% and 34.21% and 30.28%"}, {"measurement": "Cov Form Over Time (% covalent bond formation)", "setting": "BTK^FL; 7 h", "result": "34.24% and 36.81% and 34.22%"}, {"measurement": "Cov Form Over Time (% covalent bond formation)", "setting": "BTK^FL; 17 h", "result": "33.97% and 36.13% and 34.85%"}, {"measurement": "BTK^FL covalently modified", "setting": "BTK^FL; 5 uM", "result": 35.00, "unit": "%"}, {"measurement": "BTK^FL covalently modified", "setting": "BTK^FL; 10 uM", "result": 64.70, "unit": "%"}, {"measurement": "BTK^FL covalently modified", "setting": "BTK^FL; 15 uM", "result": 77.49, "unit": "%"}, {"measurement": "BTK^FL covalently modified", "setting": "BTK^FL; 30 uM", "result": 94.20, "unit": "%"}, {"measurement": "time that the level of covalent modification remains stable post-treatment", "setting": "BTK^FL; single dose 20 µM", "result": "at least 48 h"}]}]}
